Common to all, as to test: relative viability (nuclei count vs DMSO), 5 days (fraction); higher = more cells survive
Compound in the test “Idelalisib + Pictilisib”: CC[C@H](Nc1ncnc2[nH]cnc12)c1nc2cccc(F)c2c(=O)n1-c1ccccc1 [Idelalisib] + CS(=O)(=O)N1CCN(Cc2cc3nc(-c4cccc5[nH]ncc45)nc(N4CCOCC4)c3s2)CC1 [Pictilisib] (partner 1 µM)
The procedure, abridged: (§1)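 Lung cancer cell lines were pin-tool dosed in 1536-well plates on the day after seeding, with either a lone drug or a fixed anchor-drug dose plus five library-drug doses (not always all listed) in √10 steps. Nuclei were counted on 4× images after 5 days. Relative viability is the ratio of treated-well to vehicle-well nuclei counts, with each value a median of duplicate plates.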

Compound in the test “Pemetrexed + Lapatinib”: Nc1nc2[nH]cc(CCc3ccc(C(=O)N[C@@H](CCC(=O)O)C(=O)O)cc3)c2c(=O)[nH]1 [Pemetrexed] + CS(=O)(=O)CCNCc1ccc(-c2ccc3ncnc(Nc4ccc(OCc5cccc(F)c5)c(Cl)c4)c3c2)o1 [Lapatinib] (partner 2 µM)
The essentials: as §1

Compound in the test “Pemetrexed + Decitabine”: Nc1nc2[nH]cc(CCc3ccc(C(=O)N[C@@H](CCC(=O)O)C(=O)O)cc3)c2c(=O)[nH]1 [Pemetrexed] + Nc1ncn([C@H]2C[C@H](O)[C@@H](CO)O2)c(=O)n1 [Decitabine] (partner 2 µM)
The essentials: as §1

Compound in the test “Idelalisib + OSI-027”: CC[C@H](Nc1ncnc2[nH]cnc12)c1nc2cccc(F)c2c(=O)n1-c1ccccc1 [Idelalisib] + COc1cccc2cc(-c3nc([C@H]4CC[C@H](C(=O)O)CC4)n4ncnc(N)c34)[nH]c12 [OSI-027] (partner 0.5 µM)
The essentials:
as §1

Experimental findings from the supplement of paper PMC10307832 are described below.

As for EMC-BAC-2, the relative viability with Idelalisib + Pictilisib (first compound 0.04 µM) worked out at 0.563; with Idelalisib + Pictilisib (first compound 0.1265 µM), 0.569; in the test with Idelalisib + Pictilisib (first compound 0.4 µM) it was 0.475; with Idelalisib + Pictilisib (first compound 1.265 µM), 0.59; with Idelalisib + Pictilisib (first compound 4 µM), 0.492; with Pemetrexed + Lapatinib (first compound 0.002 µM), 0.792. The relative viability turned out to be 0.777 with Pemetrexed + Lapatinib (first compound 0.006325 µM); 0.961 with Pemetrexed + Lapatinib (first compound 0.02 µM); 0.903 with Pemetrexed + Lapatinib (first compound 0.06325 µM); 0.888 with Pemetrexed + Lapatinib (first compound 0.2 µM); 0.965 with Pemetrexed + Decitabine (first compound 0.002 µM); 0.882 in the test with Pemetrexed + Decitabine (first compound 0.006325 µM). Besides, the relative viability in the test with Pemetrexed + Decitabine (first compound 0.02 µM) worked out at 1; in the test with Pemetrexed + Decitabine (first compound 0.06325 µM) it was 0.971; with Pemetrexed + Decitabine (first compound 0.2 µM), 0.64; in the test with Idelalisib + OSI-027 (first compound 0.04 µM) it was 0.388; with Idelalisib + OSI-027 (first compound 0.1265 µM), 0.411; in the test with Idelalisib + OSI-027 (first compound 0.4 µM) it was 0.308. Further, the relative viability worked out at 0.363 with Idelalisib + OSI-027 (first compound 1.265 µM) and 0.352 with Idelalisib + OSI-027 (first compound 4 µM).
On to NCI-H1355, for which the relative viability with Idelalisib + Pictilisib (first compound 0.04 µM) was 0.521; in the test with Idelalisib + Pictilisib (first compound 0.1265 µM), 0.501; with Idelalisib + Pictilisib (first compound 0.4 µM) it was 0.4; with Idelalisib + Pictilisib (first compound 1.265 µM), 0.376; with Idelalisib + Pictilisib (first compound 4 µM), 0.449; with Pemetrexed + Lapatinib (first compound 0.002 µM), 0.783. The relative viability was determined as 1.05 with Pemetrexed + Lapatinib (first compound 0.006325 µM); 0.991 with Pemetrexed + Lapatinib (first compound 0.02 µM); 1.04 in the test with Pemetrexed + Lapatinib (first compound 0.06325 µM); 0.975 with Pemetrexed + Lapatinib (first compound 0.2 µM); 0.33 with Pemetrexed + Decitabine (first compound 0.002 µM); 0.354 with Pemetrexed + Decitabine (first compound 0.006325 µM). Also, the relative viability with Pemetrexed + Decitabine (first compound 0.02 µM) is 0.336; with Pemetrexed + Decitabine (first compound 0.06325 µM), 0.332; with Pemetrexed + Decitabine (first compound 0.2 µM), 0.355; in the test with Idelalisib + OSI-027 (first compound 0.04 µM), 0.401; with Idelalisib + OSI-027 (first compound 0.1265 µM), 0.476; with Idelalisib + OSI-027 (first compound 0.4 µM), 0.273. Further, the relative viability turned out to be 0.401 with Idelalisib + OSI-027 (first compound 1.265 µM) and 0.366 in the test with Idelalisib + OSI-027 (first compound 4 µM).
Turning to NCI-H1792, the relative viability came out at 0.279 with Idelalisib + Pictilisib (first compound 0.04 µM); 0.251 in the test with Idelalisib + Pictilisib (first compound 0.1265 µM); 0.268 in the test with Idelalisib + Pictilisib (first compound 0.4 µM); 0.275 with Idelalisib + Pictilisib (first compound 1.265 µM); 0.249 with Idelalisib + Pictilisib (first compound 4 µM); 0.829 with Pemetrexed + Lapatinib (first compound 0.002 µM). Further, the relative viability in the test with Pemetrexed + Lapatinib (first compound 0.006325 µM) was 0.895; with Pemetrexed + Lapatinib (first compound 0.02 µM), 0.861; in the test with Pemetrexed + Lapatinib (first compound 0.06325 µM) it was 0.875; in the test with Pemetrexed + Lapatinib (first compound 0.2 µM), 0.862; in the test with Pemetrexed + Decitabine (first compound 0.002 µM) it was 0.506; with Pemetrexed + Decitabine (first compound 0.006325 µM), 0.532. The relative viability with Pemetrexed + Decitabine (first compound 0.02 µM) came out at 0.527; with Pemetrexed + Decitabine (first compound 0.06325 µM), 0.507; with Pemetrexed + Decitabine (first compound 0.2 µM) it was 0.56; with Idelalisib + OSI-027 (first compound 0.04 µM), 0.466; with Idelalisib + OSI-027 (first compound 0.1265 µM), 0.778; with Idelalisib + OSI-027 (first compound 0.4 µM) it was 0.598. Moreover, the relative viability in the test with Idelalisib + OSI-027 (first compound 1.265 µM) worked out at 0.836; in the test with Idelalisib + OSI-027 (first compound 4 µM), 0.51.
Take NCI-H1944: the relative viability was determined as 0.374 with Idelalisib + Pictilisib (first compound 0.04 µM); 0.357 with Idelalisib + Pictilisib (first compound 0.1265 µM); 0.308 in the test with Idelalisib + Pictilisib (first compound 0.4 µM); 0.376 with Idelalisib + Pictilisib (first compound 1.265 µM); 0.33 with Idelalisib + Pictilisib (first compound 4 µM); 0.866 with Pemetrexed + Lapatinib (first compound 0.002 µM). The relative viability in the test with Pemetrexed + Lapatinib (first compound 0.006325 µM) is 0.766; with Pemetrexed + Lapatinib (first compound 0.02 µM), 0.846; with Pemetrexed + Lapatinib (first compound 0.06325 µM), 0.834; with Pemetrexed + Lapatinib (first compound 0.2 µM) it was 0.839; in the test with Pemetrexed + Decitabine (first compound 0.002 µM), 0.378; with Pemetrexed + Decitabine (first compound 0.006325 µM), 0.37. The relative viability came out at 0.405 with Pemetrexed + Decitabine (first compound 0.02 µM); 0.427 in the test with Pemetrexed + Decitabine (first compound 0.06325 µM); 0.458 with Pemetrexed + Decitabine (first compound 0.2 µM); 0.473 in the test with Idelalisib + OSI-027 (first compound 0.04 µM); 0.411 with Idelalisib + OSI-027 (first compound 0.1265 µM); 0.271 in the test with Idelalisib + OSI-027 (first compound 0.4 µM). Moreover, the relative viability was 0.396 in the test with Idelalisib + OSI-027 (first compound 1.265 µM) and 0.365 with Idelalisib + OSI-027 (first compound 4 µM).
As for ABC-1, the relative viability in the test with Idelalisib + Pictilisib (first compound 0.04 µM) amounted to 0.726; with Idelalisib + Pictilisib (first compound 0.1265 µM), 0.771; with Idelalisib + Pictilisib (first compound 0.4 µM) it was 0.566; with Idelalisib + Pictilisib (first compound 1.265 µM), 0.813; in the test with Idelalisib + Pictilisib (first compound 4 µM), 0.723; with Pemetrexed + Lapatinib (first compound 0.002 µM), 1.35. Further, the relative viability is 1.16 with Pemetrexed + Lapatinib (first compound 0.006325 µM); 1.25 with Pemetrexed + Lapatinib (first compound 0.02 µM); 1.05 with Pemetrexed + Lapatinib (first compound 0.06325 µM); 1.16 with Pemetrexed + Lapatinib (first compound 0.2 µM); 1.15 with Pemetrexed + Decitabine (first compound 0.002 µM); 1.02 with Pemetrexed + Decitabine (first compound 0.006325 µM). The relative viability with Pemetrexed + Decitabine (first compound 0.02 µM) was found to be 1.32; with Pemetrexed + Decitabine (first compound 0.06325 µM), 0.997; with Pemetrexed + Decitabine (first compound 0.2 µM), 1.19; with Idelalisib + OSI-027 (first compound 0.04 µM), 0.491; in the test with Idelalisib + OSI-027 (first compound 0.1265 µM), 0.495; in the test with Idelalisib + OSI-027 (first compound 0.4 µM) it was 0.43. The relative viability with Idelalisib + OSI-027 (first compound 1.265 µM) was 0.577; in the test with Idelalisib + OSI-027 (first compound 4 µM) it was 0.409.
Turning to HOP-62, the relative viability came to 0.883 with Idelalisib + Pictilisib (first compound 0.04 µM); 0.712 with Idelalisib + Pictilisib (first compound 0.1265 µM); 0.649 with Idelalisib + Pictilisib (first compound 1.265 µM); 0.792 with Idelalisib + Pictilisib (first compound 4 µM); 0.885 in the test with Pemetrexed + Lapatinib (first compound 0.002 µM); 1.07 with Pemetrexed + Lapatinib (first compound 0.006325 µM). Further, the relative viability amounted to 0.898 with Pemetrexed + Lapatinib (first compound 0.02 µM); 1.14 with Pemetrexed + Lapatinib (first compound 0.06325 µM); 0.982 with Pemetrexed + Lapatinib (first compound 0.2 µM); 0.198 in the test with Pemetrexed + Decitabine (first compound 0.002 µM); 0.262 in the test with Pemetrexed + Decitabine (first compound 0.006325 µM); 0.249 with Pemetrexed + Decitabine (first compound 0.02 µM). The relative viability in the test with Pemetrexed + Decitabine (first compound 0.06325 µM) was 0.204; with Pemetrexed + Decitabine (first compound 0.2 µM), 0.2; in the test with Idelalisib + OSI-027 (first compound 0.04 µM), 0.775; with Idelalisib + OSI-027 (first compound 0.1265 µM), 0.879; with Idelalisib + OSI-027 (first compound 0.4 µM), 0.719; with Idelalisib + OSI-027 (first compound 1.265 µM), 0.888. Besides, the relative viability with Idelalisib + OSI-027 (first compound 4 µM) amounted to 0.767.
As to NCI-H2009, the relative viability with Idelalisib + Pictilisib (first compound 0.04 µM) was 0.85; with Idelalisib + Pictilisib (first compound 0.1265 µM), 0.767; with Idelalisib + Pictilisib (first compound 0.4 µM), 0.798; in the test with Idelalisib + Pictilisib (first compound 1.265 µM) it was 0.84; with Idelalisib + Pictilisib (first compound 4 µM) it was 0.768; with Pemetrexed + Lapatinib (first compound 0.002 µM), 0.745. The relative viability amounted to 0.871 with Pemetrexed + Lapatinib (first compound 0.006325 µM); 0.999 in the test with Pemetrexed + Lapatinib (first compound 0.02 µM); 0.905 with Pemetrexed + Lapatinib (first compound 0.06325 µM); 0.915 in the test with Pemetrexed + Lapatinib (first compound 0.2 µM); 0.372 with Pemetrexed + Decitabine (first compound 0.002 µM); 0.307 in the test with Pemetrexed + Decitabine (first compound 0.006325 µM). Also, the relative viability is 0.416 with Pemetrexed + Decitabine (first compound 0.02 µM); 0.355 in the test with Pemetrexed + Decitabine (first compound 0.06325 µM); 0.342 with Pemetrexed + Decitabine (first compound 0.2 µM); 0.642 with Idelalisib + OSI-027 (first compound 0.04 µM); 0.646 with Idelalisib + OSI-027 (first compound 0.1265 µM); 0.515 with Idelalisib + OSI-027 (first compound 0.4 µM). Moreover, the relative viability in the test with Idelalisib + OSI-027 (first compound 1.265 µM) was 0.509; with Idelalisib + OSI-027 (first compound 4 µM), 0.557.
